Experiments:
[1] = target: T1, O-GlcNAcase in human 293T cells (Homo sapiens, UniProt O60502); experiment: Level of protein-associated O-GlcNAc in treated 293T cells by Western blot; type: cell-based; conditions: 10 μM, 16 hours, Western blot with anti-O-GlcNAc antibody, versus un-treated cells
T1 construct: endogenous in cells; host or cells: 293T cells
T1 sequence (O60502 1-916): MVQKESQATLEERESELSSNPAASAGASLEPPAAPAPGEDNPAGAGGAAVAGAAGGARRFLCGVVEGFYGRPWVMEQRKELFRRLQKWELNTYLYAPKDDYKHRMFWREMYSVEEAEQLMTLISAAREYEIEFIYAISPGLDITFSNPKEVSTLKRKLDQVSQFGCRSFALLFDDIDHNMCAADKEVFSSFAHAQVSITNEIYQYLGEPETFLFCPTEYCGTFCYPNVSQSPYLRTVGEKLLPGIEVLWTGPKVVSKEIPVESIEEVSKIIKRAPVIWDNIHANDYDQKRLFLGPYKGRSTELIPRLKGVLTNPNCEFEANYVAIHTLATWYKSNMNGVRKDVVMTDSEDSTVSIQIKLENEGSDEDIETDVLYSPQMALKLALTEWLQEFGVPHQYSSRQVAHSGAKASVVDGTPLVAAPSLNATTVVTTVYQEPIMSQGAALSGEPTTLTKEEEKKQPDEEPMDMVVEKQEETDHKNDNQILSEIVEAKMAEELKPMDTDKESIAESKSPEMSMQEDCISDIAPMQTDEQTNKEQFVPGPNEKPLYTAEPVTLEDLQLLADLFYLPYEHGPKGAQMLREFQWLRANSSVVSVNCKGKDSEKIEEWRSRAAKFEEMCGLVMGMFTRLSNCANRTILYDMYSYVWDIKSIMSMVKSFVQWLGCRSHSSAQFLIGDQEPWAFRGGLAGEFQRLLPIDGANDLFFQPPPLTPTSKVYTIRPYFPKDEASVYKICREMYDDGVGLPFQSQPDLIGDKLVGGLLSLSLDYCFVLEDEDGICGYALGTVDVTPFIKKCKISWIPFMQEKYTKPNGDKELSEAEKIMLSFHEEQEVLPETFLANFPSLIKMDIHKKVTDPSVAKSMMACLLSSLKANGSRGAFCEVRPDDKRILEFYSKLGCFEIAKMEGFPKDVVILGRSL
Experimental: Additionally, Compounds 1 and 3 were tested to determine their inhibitory effects on O-GlcNAcase in human 293T cells. The cells were treated with 10 μM Compound 1 or 3 for 16 hours. The level of protein-associated O-GlcNAc moieties in the treated cells was determined by Western blot analysis using an anti-O-GlcNAc antibody. See Macauley et al., J. Biol. Chem. 2005, 280, 25313-25322. Two known O-GlcNAcase inhibitors, PUGNAc (10 μM) and STZ (10 μM), were used as positive controls (Hanover et al., Arch Biochem. Biophys. 1999, 362, 38-45 and Rao et al., EMBO J. 2006, 25, 1569-1578).

[2] = target: Bacteroids fragilis O-GlcNAcase (Bacteroides fragilis, UniProt Q5L8V6); experiment: Michaelis-Menten/Lineweaver-Burk kinetic inhibition of O-GlcNAcase with 4MU-NAG substrate; type: biochemical; conditions: for Selectivity (KI O-GlcNAcase/KI HEX): Bacteroids fragilis O-GlcNAcase over human HEX B, Table 1
Experimental: Bacteroids fragilis O-GlcNAcase, which is highly homologous to human O-GlcNAcase, was prepared as follows. Based on the genome sequence of B. fragilis (NCTC 9343) as disclosed in GenBank accession no. CR626927 (Oct. 23, 2008), a DNA fragment encoding the B. fragilis O-GlcNAcse was amplified via polymerase chain reaction (PCR), using the primers of: 5′-[…]-3′ (SEQ ID NO:1) (forward primer) and 5′-[…]-3′ (SEQ ID NO:2) (reverse primer). The PCR product was cloned into pGEM-T Easy vector (Promega) via cloning sites Nde1 and Xho1 and then subcloned into pET21b vector to produce expression plasmid pOGA, which encodes a fusion protein including O-GlcNAcase and a His6 tag at the C-terminus
Plasmid pOGA was transformed into E. coli BL21 (DE3) cells and a positive transformant was cultured in Luria-Bertani (LB) medium with ampicillin (100 μg/mL) overnight. The E. coli culture, transferred to fresh LB medium, was incubated at 37° C. and, when A600 of the culture reached 0.6, isopropyl-β-D-thiogalactopyranoside (final conc: 250 μM) was added to induce expression of O-GlcNAcse. The induced cells were further cultured at 16° C. overnight, harvested, and disrupted to produce a cell lysate. Upon centrifugation, the supernatant thus obtained was loaded onto a nickel-affinity column. After elution, a fraction containing O-GlcNAcse was collected and the enzyme contained therein was further purified by gel filtration using a Superdex 6 column. See Dennis et al., Nat Struct Mol Biol 2006, 13: 365-71. The purified protein was concentrated using a 10 kDa-cutoff concentrator and dialyzed against 20 mM HEPES (pH 7.5).
The reaction conditions for each enzyme are shown below:
O-GlcNAcase: reaction mixture (0.5 nM O-GlcNAcase (200 μL) in 50 mM citric acid, 100 mM NaCl, 0.1% BSA, 0.05-1.5 mM substrate, pH 4.25) was incubated at 30° C. for 25 minutes. The enzyme activity at different time points was determined by measuring the levels of the fluorescent signals (excitation wavelength: 360 nm; emission wavelength: 460 nm) released from 4-methylumbelliferone, a product of the enzyme reaction.
(§1) In these reactions, the substrate concentrations were three to five fold of the concentration used for determining KM (absent compounds) and the ratio between the enzyme and the compound was 0.1-0.5 nM to 0.3 nM-200 uM. The data thus obtained were analyzed by the Lineweaver-Burk plot. The K1 values were determined by the double reciprocal plot (1/V vs. 1/[S]). More specifically, the Km values for each enzyme in the presence of one of the test compounds first determined and these values were further plotted in view of the concentrations of the compound. K1 was determined by calculating the negative value of the resulting x-intercept. The selectivity of each compound was calculated by the formula: K1 O-GlcNAcase/K1 Hex B.

Human O-GlcNAcase = target: T2, Human O-GlcNAcase (Homo sapiens, UniProt O60502); experiment: Inhibition of human O-GlcNAcase; type: biochemical; conditions: Table 2; for Selectivity (KI O-GlcNAcase/KI HEX): Human O-GlcNAcase over human HEX B; for Ki: Human O-GlcNAcase
T2 construct: made in house
T2 sequence (O60502 1-916): T1 sequence (O60502 1-916)
Experimental: Human O-GlcNAcase was also prepared and tested according to the procedures described in Gao et al., J. Biol. Chem. 2001, 276, 9838-9845 and Macauley et al., J. Am. Chem. Soc. 2005, 127, 17202-17203.

Human HEX B = target: T3, Human HEX B (Homo sapiens, UniProt P07686); experiment: Michaelis-Menten/Lineweaver-Burk kinetic inhibition of Hex B with 4MU-NAG substrate; type: biochemical
T3 construct: Hex B protein (isolated from human placenta) was purchased from Sigma Co; purchased Sigma Co; host or cells: human placenta
Experimental: Hex B protein (isolated from human placenta) was purchased from Sigma Co.
Both O-GlcNAcase and Hex B were subjected to Michaelis-Menton kinetic analysis to determine the kinetics of their enzymatic activity in the presence of absence of Compounds 1-5 and Compound ix, using 4-methylumbelliferyl-N-acetyl-β-D-glucosaminide (4MU-NAG; purchased from Sigma Co.) as the substrate (a fluorogenic substrate). The reaction conditions for each enzyme are shown below:
Hex B: reaction mixture (0.1 nM Hex B (200 μL), 50 mM NaH2PO4, 100 mM NaCl, 0.1% BSA, 0.05-1.5 mM substrate, pH 6.5) was incubated at 30° C. for 25 minutes. The reaction was terminated by addition of a 3× quenching buffer (200 mM sodium glycine buffer, pH 10.8). The enzyme activity was determined as described above.
as §1, with “To determine the effects of Compounds 1-5 and Compound ix on the kinetics of both enzymes, the enzyme reactions described above were performed in the presence of each compound at different concentrations. In” for “In”

BV2 cells = experiment: GM2 ganglioside level in BV2 cells by high performance thin-layer chromatography; type: cell-based, mouse; conditions: 200 nM, 10 days, HPTLC
Experimental: Glycosphingolipids (e.g., GM2) were extracted from the treated cells with chloroform/methanol and the ganglioside levels were determined by high performance thin-layer chromatography.

Bacteroids fragilis O-GlcNAcase, sequence (Q5L8V6 entry or part of it): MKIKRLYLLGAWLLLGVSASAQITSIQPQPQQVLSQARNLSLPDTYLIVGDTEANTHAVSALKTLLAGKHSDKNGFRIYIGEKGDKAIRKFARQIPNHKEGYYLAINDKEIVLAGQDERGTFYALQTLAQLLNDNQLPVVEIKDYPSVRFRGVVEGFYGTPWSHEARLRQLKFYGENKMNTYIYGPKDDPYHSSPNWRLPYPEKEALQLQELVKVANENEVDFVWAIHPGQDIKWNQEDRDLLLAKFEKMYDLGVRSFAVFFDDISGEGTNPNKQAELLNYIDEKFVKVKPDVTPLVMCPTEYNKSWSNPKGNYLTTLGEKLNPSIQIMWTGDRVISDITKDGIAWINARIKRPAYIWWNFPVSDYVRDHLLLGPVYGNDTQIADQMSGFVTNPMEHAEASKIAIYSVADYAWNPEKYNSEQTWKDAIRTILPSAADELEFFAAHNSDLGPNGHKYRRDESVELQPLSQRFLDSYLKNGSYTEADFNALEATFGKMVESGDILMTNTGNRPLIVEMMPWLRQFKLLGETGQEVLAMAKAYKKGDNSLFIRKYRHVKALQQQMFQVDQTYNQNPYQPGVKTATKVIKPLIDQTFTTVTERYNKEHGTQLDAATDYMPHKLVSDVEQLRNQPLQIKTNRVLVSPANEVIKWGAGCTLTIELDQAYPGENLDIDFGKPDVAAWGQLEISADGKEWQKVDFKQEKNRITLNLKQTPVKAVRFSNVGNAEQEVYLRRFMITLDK
T3 sequence (P07686 315-556 limits assumed): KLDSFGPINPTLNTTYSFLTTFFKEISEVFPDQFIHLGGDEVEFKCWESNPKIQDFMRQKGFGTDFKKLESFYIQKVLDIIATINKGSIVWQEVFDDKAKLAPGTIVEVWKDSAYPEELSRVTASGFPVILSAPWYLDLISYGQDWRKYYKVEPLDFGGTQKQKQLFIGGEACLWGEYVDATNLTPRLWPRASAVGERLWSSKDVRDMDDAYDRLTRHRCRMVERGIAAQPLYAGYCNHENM
T3 sequence (P07686 122-311 limits assumed): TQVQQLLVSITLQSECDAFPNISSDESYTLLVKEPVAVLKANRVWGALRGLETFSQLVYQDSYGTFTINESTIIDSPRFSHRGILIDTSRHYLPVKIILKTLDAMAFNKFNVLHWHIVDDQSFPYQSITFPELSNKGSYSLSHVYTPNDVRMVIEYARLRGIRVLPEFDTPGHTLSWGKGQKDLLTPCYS
T3 sequence (P07686 50-107 partner limits assumed): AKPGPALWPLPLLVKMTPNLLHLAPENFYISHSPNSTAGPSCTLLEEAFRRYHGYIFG

| Compound | level of O-GlcNAc moieties in treated cells [1] | Ki [2] | Selectivity (KI O-GlcNAcase/KI HEX) [2] | Selectivity (KI O-GlcNAcase/KI HEX) (Human O-GlcNAcase) | Ki (Human O-GlcNAcase) | Ki (Human HEX B; Table 1) | Ki (Human HEX B; Table 2) | GM2 level in treated cells (BV2 cells) |
| --- | --- | --- | --- | --- | --- | --- | --- | --- |
| CC(=O)NC1CN(CCCCCCCN)C(CO)C(O)C1O [Compound 1, N-[1(7-Amino-heptyl)]-2-acetamido-1,2,5-trideoxy-1,5-imino-D-glucitol] | not significantly different than that in un-treated cells | 75.3 ± 9.13 µM | 36,000 | 51,000 | 108 ± 9.17 µM | 0.0021 ± 0.00038 µM | 0.0021 ± 0.00038 µM | – |
| CC(=O)NC1CN(CCCCCCCN=[N+]=[N-])C(CO)C(O)C1O (stereo not drawn) [Compound 4] | – | 95.7 ± 8.37 µM | 56 | 91 | 155 ± 9.87 µM | 1.7 ± 0.56 µM | 1.7 ± 0.56 µM | – |
| CC(=O)N[C@H]1/C(=N/OC(=O)Nc2ccccc2)O[C@H](CO)[C@@H](O)[C@@H]1O [PUGNAc, reference compound] | notably increased | – | – | – | – | – | – | only modestly increased |
| CN(N=O)C(=O)N[C@@H]1[C@@H](O)[C@H](O)[C@@H](CO)O[C@@H]1O [STZ, reference compound] | notably increased | – | – | – | – | – | – | – |
| COc1ccc(CN(CCCCCCCN2CC(NC(C)=O)C(O)C(O)C2CO)Cc2ccc(OC)cc2)cc1 (stereo not drawn) [Compound 3] | not significantly different than that in un-treated cells | 129 ± 2.55 µM | 190,000 | 250,000 | 176 ± 2.15 µM | 0.00069 ± 7.7e-05 µM | 0.00069 ± 7.7e-05 µM | significantly increased |
| COc1ccc(CNCCCCCCCN2CC(NC(C)=O)C(O)C(O)C2CO)cc1 (stereo not drawn) [Compound 2] | – | 72.1 ± 0.88 µM | 60,000 | 85,000 | 102 ± 6.47 µM | 0.0012 ± 0.00023 µM | 0.0012 ± 0.00023 µM | – |
